Results on four compounds are retold here after patent US6893641B2, “Ganoderma lucidum spores for treatment of autoimmune diseases” (priority 1999, dated 2005).

The structures appear in SMILES notation. Entries after “also recorded” stand apart in the source; their conditions may differ. Like-named read-outs stand apart in the source and are kept apart here. Marks after values point to notes of the source that are not given here.

Data set [1] deals with TA97. Nature of the data set: Ames test, Petri dish mixing method, TA97. It is filed as cell-based. As to conditions: TA97 −S9, positive control, dose not given. The method, then: (§1) Test bacteria (TA97, TA98, TA100, TA102) were supplied by the Bureau of Food Inspection, Department of Health in Beijing. […] Using the Petri dish mixing method, two independent tests were carried out.
In general terms: The Ames test uses bacterial strains that need an amino acid and regain growth without it when mutated back.

Data set [2] concerns TA98. Nature of the data set: Ames test, Petri dish mixing method, TA98. The class given is cell-based. Conditions: TA98 −S9, positive control, dose not given. The method, then: as §1
The subject of data set [3] is NIH mice. The experiment in a line: Mouse sperm deformation test. The class given is in vivo. As to conditions: 0.04 g/kg, abdominal injections. The text has this: 3. Sperm Deformation Test
Twenty five (25) NIH mice with body weights of 18-22 g, randomly divided into 5 groups and continuously force fed for 5 days (the Endoxan positive group received abdominal injections), were used in this test. Thirty five (35) days later, the animals were sacrificed and both testicles were taken out for the standard biopsy preparation and staining. Five thousand (5000) whole sperm from each group were examined under an oil immersion lens and the sperm deformation percentage was calculated.

Data set [4] relates to NIH mice. Conditions: for No. of micronuclei: 10000 cells.
Protocol: Test material: The GLSs were brown powders. After going through a 100 mesh sieve, 120 g of the samples were mixed with 300 mL distilled water (to give a concentration of 40 g/dL) and stirred for 15 min in a stirrer at 7000 rpm. They were then bottled, underwent disinfection and antiseptic treatments, and 1 mL of a pasty liquid was obtained, which was about 0.4 g of the samples. Direct gavage was carried out two times per day.
Mouse Bone Marrow Micronucleus Test:
Seventy (70) NIH mice with body weights of 20-23 g were used in this test. The mice were divided into 7 groups and testing was carried out according to the methods of the Toxicological Evaluation Procedures for Food Safety. Gavage was carried out twice, and 6 hrs after the second force feeding, the mice were sacrificed, and both of the femurs were taken out for the preparation of a biopsy, staining and examination under a microscope.
Data set [5] has as its system TA100. Nature of the data set: Ames test, Petri dish mixing method, TA100. The class given is cell-based. Conditions: TA100 −S9, positive control, dose not given. Here is the method: as §1
In data set [6] the test system is SLE mice. The experiment in a line: T-lymphocyte populations in SLE mice under different treatments. The class given is in vivo. The method, then: Spleens, lymph nodes, and thymus glands were collected under sterile conditions from the DBA/2 or BALB/C mice. Lymphocytes were then isolated and washed with Hanks solution 3 times. Cells were stained with 0.5% trypan blue and examined for viability. The lymphocytes were then adjusted to the desired concentrations.
Kidney tissues were sampled and undergone morphologic analyses under light scope.
Statistical analyses and t test, were carried out using SPAAS 10.0 computer software.

[7] abbreviates: blood at 168 hours after the first dosing, daily oral, GLSs 0.8 g/kg/day, prednisolone solution 50 mL/kg/day.

Take `CCN(CC)CCCC(C)Nc1c2ccc(Cl)cc2nc2ccc(OC)cc12` (centres unmarked) [Atabrine]: the “colonies due to reverse mutation” value in data set [1] was >1500; in data set [2], >1433.

Turning to `O=P1(N(CCCl)CCCl)NCCCO1` (centres unmarked) [Endoxan], the “No of deformed sperm (count)” value in data set [3] (5000 sperm) came out at 98. Also, in data set [3] (p < 0.01 vs other groups), the Percentage deformation is given as 72.80**. The No. of micronuclei stood at 249 in data set [4] (listed as printed '(0.06)' g/kg under Endoxan) and 12 in data set [4] (listed as printed '^ Endoxan'). In addition, the Percentage of micronuclei is given as 24.9** 0/00 in data set [4] (listed as printed '(0.06)' g/kg under Endoxan, p < 0.001 vs other groups) and 1.2 0/00 in data set [4] (listed as printed '^ Endoxan').

For `[N-]=[N+]=[N-]` [Sodium azide], the “colonies due to reverse mutation” value in data set [5] is on record as >1500.

For the compound `C[C@]12C=CC(=O)C=C1CC[C@@H]1[C@@H]2[C@@H](O)C[C@@]2(C)[C@H]1CC[C@]2(O)C(=O)CO` [prednisolone], in data set [6] (168 hours after the first dosing), the “T %, Th %, Ts % and Th/Ts ratio compared with control groups” value is reported as “much better than those in the SLE control group; also recorded: improved the T cell counts in similar degree as those of GLSs”. In data set [6] (setting [7]), the “T(%)” value is listed as 51.30 ± 4.23%, the “Th (%)” value is listed as 31.44 ± 3.21%, the Th/Ts is reported as 1.12 ± 0.31 and the “Ts (%)” value was found to be 28.43 ± 3.12%.
